Data reported in patent US20230365546A1, “5-SUBSTITUTED INDOLE 3-AMIDE DERIVATIVES, PREPARATION METHOD AND USE THEREOF” (ORIGIANT PHARMACEUTICAL CO., LTD, priority 2020, published 2023).

Legend:
[1] = tested on: 422 kinases (including mutants); assay: Kinase selectivity profile over the Eurofins panel; type: biochemical; details: 10 μM, Tables 3 and 4, FIGS. 1 and 2
From the text: The selectivity profiles for Compounds 34 and 94 were plotted according to the data in Table 3 and Table 4. Wherein the red circular spot indicated the kinase were inhibited obviously, and the larger the radius of the red spot, the higher the inhibition against the kinase, and vice versa.

Fgr(h) = Fgr(h) (Homo sapiens (Human), UniProt P09769); assay: Kinase Profiler 10 μM panel
Procedure: (§1) In vitro kinase assays were conducted using Kinase Profiler services provided by Eurofins. The experimental method was as follows: the small molecule compound to be tested (0.001-10 μM), the protein kinase to be tested were incubated with a buffer containing substrate, 10 mM magnesium acetate, and [γ-^33P-ATP], the reaction was started by adding Mg\TPmix, after incubation for a period of time at room temperature, a 3% phosphate solution was added to the buffer to stop the reaction. Subsequently, 10 μL of the reaction mixture was quantitatively pipetted onto P30 filter paper, which was washed three times with 75 mM phosphate solution and then once with methanol. The P30 filter paper was air-dried and scintillation fluid was added for scintillation counting.

Abl (M351T)(h) = Abl (M351T)(h) (Homo sapiens (Human), UniProt P00519, M351T); assay: Kinase Profiler 10 μM panel
Procedure: as §1

Fms(Y969C)(h) = Fms(Y969C)(h) (Homo sapiens (Human), UniProt P07333, Y969C); assay: Kinase Profiler 10 μM panel
Procedure: as §1

Fyn(h) = Fyn(h) (Homo sapiens (Human), UniProt P06241); assay: Kinase Profiler 10 μM panel
Procedure: as §1

GRK1(h) = GRK1(h) (Homo sapiens (Human), UniProt Q15835); assay: Kinase Profiler 10 μM panel
Procedure: as §1

ARK5(h) = ARK5(h) (Homo sapiens (Human), UniProt O60285); assay: Kinase Profiler 10 μM panel
Procedure: as §1

PIP5K1a(h) = PIP5K1a(h) (Homo sapiens (Human), UniProt Q99755); assay: Kinase Profiler 10 μM panel
Procedure: as §1

ASK1(h) = ASK1(h) (Homo sapiens (Human), UniProt Q99683); assay: Kinase Profiler 10 μM panel
Procedure: as §1

HIPK2(h) = HIPK2(h) (Homo sapiens (Human), UniProt Q9H2X6); assay: Kinase Profiler 10 μM panel
Procedure: as §1

PKBα(h) = PKBα(h) (Homo sapiens (Human), UniProt P31749); assay: Kinase Profiler 10 μM panel
Procedure: as §1

IRR(h) = IRR(h) (Homo sapiens (Human), UniProt P14616); assay: Kinase Profiler 10 μM panel
Procedure: as §1

CaMKIIβ(h) = CaMKIIβ(h) (Homo sapiens (Human), UniProt Q13554); assay: Kinase Profiler 10 μM panel
Procedure: as §1

Plk1(h) = Plk1(h) (Homo sapiens (Human), UniProt P53350); assay: Kinase Profiler 10 μM panel
Procedure: as §1

CaMKIδ(h) = CaMKIδ(h) (Homo sapiens (Human), UniProt Q8IU85); assay: Kinase Profiler 10 μM panel
Procedure: as §1

RIPK2(h) = RIPK2(h) (Homo sapiens (Human), UniProt O43353); assay: Kinase Profiler 10 μM panel
Procedure: as §1

ROCK-I(h) = ROCK-I(h) (Homo sapiens (Human), UniProt Q13464); assay: Kinase Profiler 10 μM panel
Procedure: as §1

CDKL1(h) = CDKL1(h) (Homo sapiens (Human), UniProt Q00532); assay: Kinase Profiler 10 μM panel
Procedure: as §1

Rsk2(h) = Rsk2(h) (Homo sapiens (Human), UniProt P51812); assay: Kinase Profiler 10 μM panel
Procedure: as §1

MARK4(h) = MARK4(h) (Homo sapiens (Human), UniProt Q96L34); assay: Kinase Profiler 10 μM panel
Procedure: as §1

MINK(h) = MINK(h) (Homo sapiens (Human), UniProt Q8N4C8); assay: Kinase Profiler 10 μM panel
Procedure: as §1

CLK1(h) = CLK1(h) (Homo sapiens (Human), UniProt P49759); assay: Kinase Profiler 10 μM panel
Procedure: as §1

MST2(h) = MST2(h) (Homo sapiens (Human), UniProt Q13188); assay: Kinase Profiler 10 μM panel
Procedure: as §1

TAO3(h) = TAO3(h) (Homo sapiens (Human), UniProt Q9H2K8); assay: Kinase Profiler 10 μM panel
Tie2(R849W)(h) = Tie2(R849W)(h) (Homo sapiens (Human), UniProt Q02763, R849W); assay: Kinase Profiler 10 μM panel
Procedure: as §1

NEK9(h) = NEK9(h) (Homo sapiens (Human), UniProt Q8TD19); assay: Kinase Profiler 10 μM panel
Procedure: as §1

TSSK3(h) = TSSK3(h) (Homo sapiens (Human), UniProt Q96PN8); assay: Kinase Profiler 10 μM panel
Procedure: as §1

TTBK2(h) = TTBK2(h) (Homo sapiens (Human), UniProt Q6IQ55); assay: Kinase Profiler 10 μM panel
Procedure: as §1

TTK(h) = TTK(h) (Homo sapiens (Human), UniProt P33981); assay: Kinase Profiler 10 μM panel
Procedure: as §1

TYK2(h) = TYK2(h) (Homo sapiens (Human), UniProt P29597); assay: Kinase Profiler 10 μM panel
Procedure: as §1

EphB2(h) = EphB2(h) (Homo sapiens (Human), UniProt P29323); assay: Kinase Profiler 10 μM panel
Procedure: as §1

VRK1(h) = VRK1(h) (Homo sapiens (Human), UniProt Q99986); assay: Kinase Profiler 10 μM panel
Procedure: as §1

FGFR2(N549H)(h) = FGFR2(N549H)(h) (Homo sapiens (Human), UniProt P21802, N549H); assay: Kinase Profiler 10 μM panel
Sequence of FGFR2(N549H)(h) (P21802 22-821 N549H): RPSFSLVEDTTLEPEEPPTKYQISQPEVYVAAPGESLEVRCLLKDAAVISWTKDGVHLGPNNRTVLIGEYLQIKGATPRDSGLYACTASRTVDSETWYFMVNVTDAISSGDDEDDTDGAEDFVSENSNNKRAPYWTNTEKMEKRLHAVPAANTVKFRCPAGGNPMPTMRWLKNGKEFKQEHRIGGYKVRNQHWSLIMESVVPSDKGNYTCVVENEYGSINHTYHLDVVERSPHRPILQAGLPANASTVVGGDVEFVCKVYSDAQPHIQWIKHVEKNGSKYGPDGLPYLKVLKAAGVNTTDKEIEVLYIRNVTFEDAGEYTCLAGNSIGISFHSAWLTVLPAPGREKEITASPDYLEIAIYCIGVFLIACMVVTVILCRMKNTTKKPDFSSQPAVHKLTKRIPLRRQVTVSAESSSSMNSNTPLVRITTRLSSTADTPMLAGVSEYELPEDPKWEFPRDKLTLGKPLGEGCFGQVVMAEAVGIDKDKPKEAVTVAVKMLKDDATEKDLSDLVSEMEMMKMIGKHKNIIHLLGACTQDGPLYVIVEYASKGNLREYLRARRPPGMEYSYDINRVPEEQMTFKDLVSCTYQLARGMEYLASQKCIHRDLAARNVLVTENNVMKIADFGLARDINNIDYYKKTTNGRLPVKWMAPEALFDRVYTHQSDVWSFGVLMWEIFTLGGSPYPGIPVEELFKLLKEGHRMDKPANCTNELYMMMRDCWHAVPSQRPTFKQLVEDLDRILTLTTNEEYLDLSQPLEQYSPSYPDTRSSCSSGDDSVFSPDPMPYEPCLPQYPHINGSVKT
Procedure: as §1

Sequence of Fyn(h) (P06241 whole entry): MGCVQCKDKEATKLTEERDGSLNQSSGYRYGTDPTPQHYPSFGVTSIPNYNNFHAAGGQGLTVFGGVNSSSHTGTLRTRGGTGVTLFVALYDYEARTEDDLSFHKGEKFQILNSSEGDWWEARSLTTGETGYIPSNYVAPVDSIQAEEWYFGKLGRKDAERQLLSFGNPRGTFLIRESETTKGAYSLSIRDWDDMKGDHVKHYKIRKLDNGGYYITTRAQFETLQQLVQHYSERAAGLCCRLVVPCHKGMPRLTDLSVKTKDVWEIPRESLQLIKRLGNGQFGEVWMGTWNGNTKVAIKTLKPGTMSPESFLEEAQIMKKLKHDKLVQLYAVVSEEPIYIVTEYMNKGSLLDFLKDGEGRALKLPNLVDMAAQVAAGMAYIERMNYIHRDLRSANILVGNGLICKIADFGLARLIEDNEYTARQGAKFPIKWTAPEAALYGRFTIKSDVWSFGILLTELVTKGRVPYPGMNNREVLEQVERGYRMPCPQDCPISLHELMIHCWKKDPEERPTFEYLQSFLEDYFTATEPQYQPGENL
Sequence of GRK1(h) (Q15835 whole entry): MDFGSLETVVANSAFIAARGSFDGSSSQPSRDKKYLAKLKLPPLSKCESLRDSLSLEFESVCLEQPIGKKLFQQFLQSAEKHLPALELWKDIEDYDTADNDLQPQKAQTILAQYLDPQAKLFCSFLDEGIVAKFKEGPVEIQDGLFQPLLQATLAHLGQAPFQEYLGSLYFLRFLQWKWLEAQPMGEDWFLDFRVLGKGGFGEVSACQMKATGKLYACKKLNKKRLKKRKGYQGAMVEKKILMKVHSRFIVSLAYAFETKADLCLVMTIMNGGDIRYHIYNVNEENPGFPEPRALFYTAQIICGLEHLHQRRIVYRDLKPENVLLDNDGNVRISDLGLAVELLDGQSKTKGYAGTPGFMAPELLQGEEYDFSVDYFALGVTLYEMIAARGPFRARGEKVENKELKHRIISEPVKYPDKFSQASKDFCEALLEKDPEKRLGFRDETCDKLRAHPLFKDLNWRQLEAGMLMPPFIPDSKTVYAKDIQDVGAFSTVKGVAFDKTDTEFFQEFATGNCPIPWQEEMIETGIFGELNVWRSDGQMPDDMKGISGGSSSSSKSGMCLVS
Sequence of PIP5K1a(h) (Q99755 whole entry): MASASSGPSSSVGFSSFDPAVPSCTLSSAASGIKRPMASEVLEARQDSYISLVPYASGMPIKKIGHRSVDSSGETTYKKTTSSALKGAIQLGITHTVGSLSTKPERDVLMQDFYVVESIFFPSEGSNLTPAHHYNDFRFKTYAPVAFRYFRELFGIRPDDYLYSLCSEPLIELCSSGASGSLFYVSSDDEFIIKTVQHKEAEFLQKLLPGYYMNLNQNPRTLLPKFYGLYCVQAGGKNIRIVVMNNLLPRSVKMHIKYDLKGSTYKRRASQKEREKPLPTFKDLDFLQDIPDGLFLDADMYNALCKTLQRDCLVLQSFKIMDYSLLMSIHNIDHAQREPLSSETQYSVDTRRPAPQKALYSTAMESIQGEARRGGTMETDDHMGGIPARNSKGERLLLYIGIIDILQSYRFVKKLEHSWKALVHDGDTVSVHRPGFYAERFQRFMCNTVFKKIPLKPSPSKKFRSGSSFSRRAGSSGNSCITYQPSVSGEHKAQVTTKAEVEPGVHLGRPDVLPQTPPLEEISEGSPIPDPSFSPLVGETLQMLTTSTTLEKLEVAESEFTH
Sequence of MST2(h) (Q13188 whole entry): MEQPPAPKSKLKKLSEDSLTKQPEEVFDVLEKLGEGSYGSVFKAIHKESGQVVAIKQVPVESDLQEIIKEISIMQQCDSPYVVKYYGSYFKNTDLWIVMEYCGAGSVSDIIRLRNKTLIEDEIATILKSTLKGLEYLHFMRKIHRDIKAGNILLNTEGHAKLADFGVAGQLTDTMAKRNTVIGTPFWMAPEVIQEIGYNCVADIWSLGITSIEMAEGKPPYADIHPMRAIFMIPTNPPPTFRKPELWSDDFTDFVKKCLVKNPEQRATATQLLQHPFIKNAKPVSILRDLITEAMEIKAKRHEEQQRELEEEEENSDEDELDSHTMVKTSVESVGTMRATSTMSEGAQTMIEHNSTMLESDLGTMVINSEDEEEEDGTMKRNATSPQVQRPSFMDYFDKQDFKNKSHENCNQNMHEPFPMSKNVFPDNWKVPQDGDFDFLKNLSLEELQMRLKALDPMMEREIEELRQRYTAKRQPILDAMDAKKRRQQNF
Sequence of ASK1(h) (Q99683 whole entry): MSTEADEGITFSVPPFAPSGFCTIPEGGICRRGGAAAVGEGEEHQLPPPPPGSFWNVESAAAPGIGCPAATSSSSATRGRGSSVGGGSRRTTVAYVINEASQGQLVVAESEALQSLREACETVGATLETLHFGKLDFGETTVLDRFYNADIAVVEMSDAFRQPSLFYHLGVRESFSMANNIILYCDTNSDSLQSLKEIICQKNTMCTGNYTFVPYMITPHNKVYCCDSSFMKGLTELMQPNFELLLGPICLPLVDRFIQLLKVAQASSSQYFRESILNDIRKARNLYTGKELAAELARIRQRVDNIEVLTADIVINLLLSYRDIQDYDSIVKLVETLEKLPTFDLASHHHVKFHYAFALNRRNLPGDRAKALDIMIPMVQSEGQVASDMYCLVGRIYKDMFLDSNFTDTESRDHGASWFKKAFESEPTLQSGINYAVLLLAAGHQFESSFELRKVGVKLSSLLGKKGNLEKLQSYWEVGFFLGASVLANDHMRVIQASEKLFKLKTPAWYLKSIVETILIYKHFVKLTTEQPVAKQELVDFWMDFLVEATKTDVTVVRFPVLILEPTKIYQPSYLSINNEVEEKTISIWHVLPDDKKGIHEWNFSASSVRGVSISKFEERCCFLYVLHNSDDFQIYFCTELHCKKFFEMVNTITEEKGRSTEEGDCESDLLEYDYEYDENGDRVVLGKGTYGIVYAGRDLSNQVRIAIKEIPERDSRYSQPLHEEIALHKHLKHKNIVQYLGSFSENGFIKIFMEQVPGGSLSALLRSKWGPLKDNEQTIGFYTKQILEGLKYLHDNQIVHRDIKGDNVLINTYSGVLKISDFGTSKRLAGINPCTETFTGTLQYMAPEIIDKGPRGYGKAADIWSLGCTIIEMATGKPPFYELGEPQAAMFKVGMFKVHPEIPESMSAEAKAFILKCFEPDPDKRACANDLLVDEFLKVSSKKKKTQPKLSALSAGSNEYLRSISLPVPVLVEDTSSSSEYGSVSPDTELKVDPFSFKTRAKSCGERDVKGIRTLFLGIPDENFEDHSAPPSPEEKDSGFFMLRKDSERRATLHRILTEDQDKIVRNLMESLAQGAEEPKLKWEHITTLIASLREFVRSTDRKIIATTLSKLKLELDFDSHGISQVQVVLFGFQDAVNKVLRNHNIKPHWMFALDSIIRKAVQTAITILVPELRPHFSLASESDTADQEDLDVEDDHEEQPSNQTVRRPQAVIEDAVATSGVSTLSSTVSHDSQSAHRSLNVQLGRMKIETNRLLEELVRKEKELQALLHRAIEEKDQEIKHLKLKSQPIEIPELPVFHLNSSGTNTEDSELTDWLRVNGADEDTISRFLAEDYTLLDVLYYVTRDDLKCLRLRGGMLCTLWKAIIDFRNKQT
Sequence of Fgr(h) (P09769 whole entry): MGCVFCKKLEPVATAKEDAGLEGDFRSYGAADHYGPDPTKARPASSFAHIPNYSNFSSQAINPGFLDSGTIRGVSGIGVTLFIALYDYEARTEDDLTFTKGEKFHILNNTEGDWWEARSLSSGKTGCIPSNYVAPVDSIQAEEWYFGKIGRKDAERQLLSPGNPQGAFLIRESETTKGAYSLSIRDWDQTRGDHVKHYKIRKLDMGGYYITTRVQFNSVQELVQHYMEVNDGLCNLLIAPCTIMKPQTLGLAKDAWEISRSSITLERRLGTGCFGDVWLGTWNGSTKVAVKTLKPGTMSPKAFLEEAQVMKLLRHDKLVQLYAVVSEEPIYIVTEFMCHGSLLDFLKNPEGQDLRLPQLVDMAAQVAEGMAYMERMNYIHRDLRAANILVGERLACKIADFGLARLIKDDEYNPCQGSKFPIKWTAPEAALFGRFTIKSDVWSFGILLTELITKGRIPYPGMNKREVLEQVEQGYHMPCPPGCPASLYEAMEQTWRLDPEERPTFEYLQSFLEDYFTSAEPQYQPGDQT

SMILES: C[C@H](NC(=O)c1c[nH]c2ccc(-c3ccc4nc(NC(=O)C5CC5)sc4c3)cc12)c1cccc(F)c1 [Compound 34, (S)-5-(2-(cyclopropanecarboxamido)benzo[d]thiazol-6-yl)-N-(1-(3-fluorophenyl)ethyl)-1H-indole-3-carboxamide]
- Kinase selectivity [1]: good kinase selectivity
- Inhibition ratio (Fgr(h)): 42%
- Inhibition ratio (Abl (M351T)(h)): 97%
- Inhibition ratio (Fms(Y969C)(h)): 18%
- Inhibition ratio (Fyn(h)): 43%
- Inhibition ratio (GRK1(h)): −24%
- Inhibition ratio (ARK5(h)): 43%
- Inhibition ratio (PIP5K1a(h)): 21%
- Inhibition ratio (ASK1(h)): 12%
- Inhibition ratio (HIPK2(h)): 66%
- Inhibition ratio (PKBα(h)): 11%
- Inhibition ratio (IRR(h)): 50%
- Inhibition ratio (CaMKIIβ(h)): 21%
- Inhibition ratio (Plk1(h)): 8%
- Inhibition ratio (CaMKIδ(h)): 22%
- Inhibition ratio (RIPK2(h)): 67%
- Inhibition ratio (ROCK-I(h)): 15%
- Inhibition ratio (CDKL1(h)): 50%
- Inhibition ratio (Rsk2(h)): 1%
- Inhibition ratio (MARK4(h)): 3%
- Inhibition ratio (MINK(h)): 93%
- Inhibition ratio (CLK1(h)): 80%
- Inhibition ratio (MST2(h)): −9%
- Inhibition ratio (TAO3(h)): 62%
- Inhibition ratio (Tie2(R849W)(h)): 86%
- Inhibition ratio (NEK9(h)): 13%
- Inhibition ratio (TSSK3(h)): −6%
- Inhibition ratio (TTBK2(h)): 8%
- Inhibition ratio (TTK(h)): 55%
- Inhibition ratio (TYK2(h)): 12%
- Inhibition ratio (EphB2(h)): 42%
- Inhibition ratio (VRK1(h)): 2%
- Inhibition ratio (FGFR2(N549H)(h)): 86%

SMILES: C[C@H](NC(=O)c1cn(C)c2ccc(-c3ccn4nc(NC(=O)C5CC5)nc4c3)cc12)c1cccc(F)c1 [Compound 94, (S)-5-(2-(cyclopropanecarboxamido)-[1,2,4]triazolo[1,5-a]pyridin-7-yl)-N-(1-(3-fluorophenyl)ethyl)-1-methyl-1H-indole-3-carboxamide]
- Kinase selectivity [1]: good kinase selectivity
- Inhibition ratio/% (Fgr(h)): 8%
- Inhibition ratio/% (Abl (M351T)(h)): 29%
- Inhibition ratio/% (Fms(Y969C)(h)): 13%
- Inhibition ratio/% (Fyn(h)): −43%
- Inhibition ratio/% (GRK1(h)): 52%
- Inhibition ratio/% (ARK5(h)): 8%
- Inhibition ratio/% (PIP5K1a(h)): 16%
- Inhibition ratio/% (ASK1(h)): 38%
- Inhibition ratio/% (HIPK2(h)): 36%
- Inhibition ratio/% (PKBα(h)): −11%
- Inhibition ratio/% (IRR(h)): 33%
- Inhibition ratio/% (CaMKIIβ(h)): 78%
- Inhibition ratio/% (Plk1(h)): 26%
- Inhibition ratio/% (CaMKIδ(h)): 26%
- Inhibition ratio/% (RIPK2(h)): −7%
- Inhibition ratio/% (ROCK-I(h)): −10%
- Inhibition ratio/% (CDKL1(h)): 35%
- Inhibition ratio/% (Rsk2(h)): 4%
- Inhibition ratio/% (MARK4(h)): 38%
- Inhibition ratio/% (MINK(h)): 53%
- Inhibition ratio/% (CLK1(h)): 80%
- Inhibition ratio/% (MST2(h)): −14%
- Inhibition ratio/% (TAO3(h)): 6%
- Inhibition ratio/% (Tie2(R849W)(h)): 16%
- Inhibition ratio/% (NEK9(h)): −10%
- Inhibition ratio/% (TSSK3(h)): 0%
- Inhibition ratio/% (TTBK2(h)): −16%
- Inhibition ratio/% (TTK(h)): 13%
- Inhibition ratio/% (TYK2(h)): 50%
- Inhibition ratio/% (EphB2(h)): 48%
- Inhibition ratio/% (VRK1(h)): 46%
- Inhibition ratio/% (FGFR2(N549H)(h)): 12%
